# In patent publication US20140113949A1, “METHODS FOR REDUCING NEURODEGENERATION” (NESTEC S.A., priority 2011, published 2014):
# Columns and labels:
# mTOR = mTOR mRNA expression by semi-quantitative qPCR in MDCK cells; assay type: cell-based, Canine; conditions: mRNA normalized to TATA box binding protein
# Protocol: (§1) Cell Culture procedure: Commercially available Madin Darby Canine Kidney (MDCK) cells were obtained from ATCC as a stock suspension of immortalized cells. MDCK cells were cultured at 37° C. in an atmosphere of 95% air/5% CO2 and Dulbecco's Modified Eagle Medium (DMEM) media containing 10% fetal calf serum and 1% antibiotic/antimicrobial solution (DMEM-loaded). The media was changed and cells passed every 1 to 2 days using a solution containing 0.05% trypsin. For RNA extraction, cells were plated at a seeding density of 50,000 to 60,000 cells/cm^2 in 35 mm dishes. Twenty-four hours after seeding, media was changed to either control (DMEM-loaded) or test media (DMEM-loaded+1 nM melatonin). Cells were harvested 1, 3, or 5 days after exposure to control or test media. Media was changed in the remaining dishes on the days of cell harvesting. Total RNA was harvested from MDCK cell lysates using RNAlater RNA stabilization reagent and following the manufacturer's directions (Ambion, Austin, Tex.). mRNA transcripts of mTOR, S6 Kinase, and TATA box binding protein genes were analyzed by semi-quantitative qPCR on days 1, 3, and 5 of media treatment. TATA box binding protein gene transcript was used to normalize the expression of mTOR and S6 Kinase, as it is widely used as a “housekeeping” gene. The procedure in Example 1 was repeated.
# S6 Kinase = S6 Kinase mRNA expression by semi-quantitative qPCR in MDCK cells; assay type: cell-based, Canine; conditions: mRNA normalized to TATA box binding protein
# Protocol: as §1
# [1] = Trial 1, Day 1, control media + 1 nM melatonin
# [2] = Trial 1, Day 3, control media + 1 nM melatonin
# [3] = Trial 1, Day 5, control media + 1 nM melatonin
# [4] = Trial 2, Day 1, control media + 1 nM melatonin
# [5] = Trial 2, Day 3, control media + 1 nM melatonin
# [6] = Trial 2, Day 5, control media + 1 nM melatonin
smiles,measurement,setting,value
"COc1ccc2[nH]cc(CCNC(C)=O)c2c1 [melatonin, 5-methoxy-N-acetyltryptamine]",mTOR Induction,mTOR; [1],0.93
same,mTOR Induction,mTOR; [2],0.76
same,mTOR Induction,mTOR; [3],0.49
same,mTOR Induction,mTOR; [4],0.98
same,mTOR Induction,mTOR; [5],1.02
same,mTOR Induction,mTOR; [6],1.01
same,S6 Kinase Induction,S6 Kinase; [1],1.14
same,S6 Kinase Induction,S6 Kinase; [2],0.66
same,S6 Kinase Induction,S6 Kinase; [3],0.51
same,S6 Kinase Induction,S6 Kinase; [4],1.05
same,S6 Kinase Induction,S6 Kinase; [5],0.82
same,S6 Kinase Induction,S6 Kinase; [6],0.75
